According to patent US4661494A (priority 1985, dated 1987):

Legend:
Format in all cases: in vivo
[1] = system: Grape Downy Mildew organism Plasmopara viticola; assay: Grape Downy Mildew control, detached grape leaves; conditions: held 7 to 9 days after 2 days incubation
Description: The compounds of the invention were tested for the control of the Grape Downy Mildew organism Plasmopara viticola. Detached leaves, between 70 mm and 85 mm in diameter, 7-week-old Vitis vinifera cultivar Emperor grape seedlings were used as hosts. The leaves were sprayed with a 250-ppm solution of the test compound in acetone. The sprayed leaves were dried, inoculated with a spore suspension of the organism, placed in a humid environmental chamber and incubated at 66° F. to 68° F. and about 100% relative humidity. After incubation for 2 days, the plants were then held in a greenhouse 7 to 9 days; then the amount of disease control was determined. The percent disease control provided by a given test compound was based on the percent disease reduction relative to untreated check plants.

[2] = system: Tomato Late Blight organism Phytophthora infestans; assay: whole plant or invertebrate
[3] = system: Celery Late Blight organism Septoria apii; assay: whole plant or invertebrate
[4] = system: Tomato Early Blight organism Alternaria solani conidia; assay: Tomato Early Blight control, tomato seedlings; conditions: inoculated 1 day later, about 12 days
Description: Compounds of the invention were tested for the control of the Tomato Early Blight organism Alternaria solani conidia. Tomato (variety Bonny Best) seedlings of 6- to 7-weeks old were used. The tomato plants were sprayed with a 250-ppm solution of the test compound in an acetone-and-water solution containing a small amount of a nonionic emulsifier. The sprayed plants were inoculated 1 day later with the organism, placed in the environmental chamber and incubated at 66° F. to 68° F. and 100% relative humidity for 24 hours. Following the incubation, the plants were maintained in a greenhouse for about 12 days. Percent disease control was based on the percent disease development on untreated check plants.

Uromyces phaseoli tipica = assay: Leaf Rust (Bean Rust) control, pinto beans; conditions: about 14 days
Description: The Leaf Rust test was made using pinto beans. The pathogen was Uromyces phaseoli tipica. The pinto bean plants were sprayed with a 250-ppm solution of the test compound in an acetone-water mixture containing a nonionic emulsifier. The treated plants were inoculated thereafter with the pathogen and then incubated in an environmental chamber for approximately 20 hours at 100% relative humidity and a temperature of 68° F. to 70° F. The plants were then removed from the chamber, allowed to dry, and then maintained in a greenhouse at a 60% to 80% relative humidity. The rate of infection on the leaves was made after about 14 days. The percent disease control provided by a given test compound was based on the percent disease reduction relative to untreated check plants.

[5] = system: Bean Powdery Mildew organism Erysiphe polygoni; assay: Bean Powdery Mildew control, seedling bean plants; conditions: inoculated 1 day later, 10 days
Description: The compounds of the invention were tested for the control of the Bean Powdery Mildew organism Erysiphe polygoni. Seedling bean plants were sprayed with a 250-ppm solution of the test compound in acetone, water and a nonionic emulsifier. The sprayed plants were then inoculated 1 day later with the organism. The plants were maintained for 10 days at temperatures of 68° F. at night with daytime temperatures of 72° F. to 80° F.; relative humidity was maintained at 40% to 60%. The percent disease control provided by a given test compound was based on the percent disease reduction relative to the untreated check plants.

[6] = system: Rice Blast organism Piricularia oryzae; assay: whole plant or invertebrate

How did the activity at 250 ppm ([1]; Plasmopara viticola, in Vitis vinifera, read-out: Fungicidal Activity % Control GDM) turn out when CCCN(CC(=O)Nc1c(Cl)cc(Cl)cc1Cl)C(=O)c1cccnc1 [Compound 1, N-(2,4,6-trichlorophenyl), N'-(n-propyl), N'-(3-pyridylcarbonyl) glycinamide] was run?
The activity at 250 ppm was 3%.

And the activity at 250 ppm ([2]; Phytophthora infestans, read-out: Fungicidal Activity % Control TLB)?
The activity at 250 ppm was 0%.

And the activity at 250 ppm ([3]; 336 h, read-out: Fungicidal Activity % Control CLB)?
The activity at 250 ppm was 50%.

And the activity at 250 ppm ([4]; Alternaria solani, read-out: Fungicidal Activity % Control TEB)?
The activity at 250 ppm was 85%.

What about the activity at 250 ppm (Uromyces phaseoli tipica; Uromyces phaseoli, 336 h, read-out: Fungicidal Activity % Control BR) of the same compound?
Its activity at 250 ppm is 4%.

What about the activity at 250 ppm ([5]; Erysiphe polygoni, read-out: Fungicidal Activity % Control BPM) of the same compound?
The activity at 250 ppm was 100%.

What about the activity at 625 ppm ([6]; Pyricularia oryzae, read-out: Fungicidal Activity % Control RB) of the same compound?
Its activity at 625 ppm is 0%.

How did the “Fungicidal Activity % Control GDM” value ([1]; 250 ppm, detached Vitis vinifera leaves) turn out when CCCN(CC(=O)Nc1c(C)cccc1C)C(=O)c1cccnc1 [Compound 2, N-(2,6-dimethylphenyl)-N'-(n-propyl), N'-(3-pyridylcarbonyl) glycinamide] was run?
Its value is 7%.

What about the “Fungicidal Activity % Control TLB” value ([2]; 250 ppm, tomato, inoculated 1 day later, approximately 7 days) of the same compound?
The value was 10%.

What about the “Fungicidal Activity % Control CLB” value ([3]; 250 ppm, celery (Utah), approximately 14 days) of the same compound?
The value was 58%.

And the “Fungicidal Activity % Control TEB” value ([4]; 250 ppm)?
The value was 22%.

And the “Fungicidal Activity % Control BR” value (Uromyces phaseoli tipica; 250 ppm)?
Its value is 0%.

What about the “Fungicidal Activity % Control BPM” value ([5]; 250 ppm) of the same compound?
The value was 53%.

And the “Fungicidal Activity % Control RB” value ([6]; 625 ppm, rice (Calrose M-9), inoculated 1 day later, about 12 to 16 days)?
Its value is 0%.
